The values that follow come from PMC5884507, “A group of Populus trichocarpa DUF231 proteins exhibit differential O-acetyltransferase activities toward xylan” (PLoS ONE, 2018).

SMILES strings stand for the structures.

Test in all cases: radiolabelled acetyl transfer, scintillation counting
Assay type in all cases: biochemical
Details in all cases: 0.1 mM 14C-acetyl-CoA, 50 mM HEPES pH 7.0, 37 C, 4 hr

In one experiment the target is T1, PtrXOAT5 (Populus trichocarpa, UniProt A0A2R4P4M8).
T1 construct: gene XOAT5; lumenal catalytic domain 33-470, transmembrane region removed; Igkappa leader, C-terminal c-myc and His6; secreted by HEK293F, nickel-purified

The target of a further experiment is T2, PtrXOAT6 (Populus trichocarpa, UniProt A0A2R4P4M4).
T2 construct: gene XOAT6; lumenal catalytic domain 36-446, transmembrane region removed; Igkappa leader, C-terminal c-myc and His6; secreted by HEK293F, nickel-purified

A further experiment has as its target T3, PtrXOAT4 (Populus trichocarpa, UniProt A0A2R4P4M0).
T3 construct: gene XOAT4; lumenal catalytic domain 37-428, transmembrane region removed; Igkappa leader, C-terminal c-myc and His6; secreted by HEK293F, nickel-purified

A further experiment has as its target T4, PtrXOAT9 (Populus trichocarpa, UniProt A0A2K1ZDC4).
T4 construct: gene XOAT9; lumenal catalytic domain 52-437, transmembrane region removed; Igkappa leader, C-terminal c-myc and His6; secreted by HEK293F, nickel-purified

A further experiment concerns the target T5, PtrXOAT8 (Populus trichocarpa, UniProt A0A2R4P4N1).
T5 construct: gene XOAT8; lumenal catalytic domain 33-415, transmembrane region removed; Igkappa leader, C-terminal c-myc and His6; secreted by HEK293F, nickel-purified

Another experiment addresses T6, PtrXOAT10 (Populus trichocarpa, UniProt A0A2R4P4N0).
T6 construct: gene XOAT10; lumenal catalytic domain 55-438, transmembrane region removed; Igkappa leader, C-terminal c-myc and His6; secreted by HEK293F, nickel-purified

Another experiment deals with T7, PtrXOAT7 (Populus trichocarpa, UniProt B9IGB9).
T7 construct: gene XOAT7; lumenal catalytic domain 38-426, transmembrane region removed; Igkappa leader, C-terminal c-myc and His6; secreted by HEK293F, nickel-purified
T7 sequence (B9IGB9 entry or part of it): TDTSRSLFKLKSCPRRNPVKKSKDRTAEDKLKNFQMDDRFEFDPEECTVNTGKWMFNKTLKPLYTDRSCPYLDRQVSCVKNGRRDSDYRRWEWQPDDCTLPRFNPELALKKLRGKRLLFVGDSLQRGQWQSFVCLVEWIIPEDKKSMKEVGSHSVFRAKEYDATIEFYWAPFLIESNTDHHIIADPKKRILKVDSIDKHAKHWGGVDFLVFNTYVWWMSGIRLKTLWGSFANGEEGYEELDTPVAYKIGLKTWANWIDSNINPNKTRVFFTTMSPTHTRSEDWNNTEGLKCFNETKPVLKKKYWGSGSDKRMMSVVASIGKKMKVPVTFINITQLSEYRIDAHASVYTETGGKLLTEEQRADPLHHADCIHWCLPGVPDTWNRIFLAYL

T1 sequence (A0A2R4P4M8 entry or part of it): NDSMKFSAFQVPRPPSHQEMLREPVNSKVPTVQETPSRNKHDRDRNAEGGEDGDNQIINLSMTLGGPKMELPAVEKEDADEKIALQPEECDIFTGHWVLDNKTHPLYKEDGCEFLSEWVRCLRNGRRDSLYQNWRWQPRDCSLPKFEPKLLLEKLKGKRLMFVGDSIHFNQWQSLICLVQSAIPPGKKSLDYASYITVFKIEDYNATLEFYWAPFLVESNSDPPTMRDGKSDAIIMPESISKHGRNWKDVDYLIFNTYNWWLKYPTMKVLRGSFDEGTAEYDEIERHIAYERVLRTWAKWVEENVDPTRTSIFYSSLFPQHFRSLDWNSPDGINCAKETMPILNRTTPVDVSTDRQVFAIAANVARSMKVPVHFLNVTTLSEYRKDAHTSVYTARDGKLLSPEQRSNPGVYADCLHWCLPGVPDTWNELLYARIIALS
T3 sequence (A0A2R4P4M0 entry or part of it): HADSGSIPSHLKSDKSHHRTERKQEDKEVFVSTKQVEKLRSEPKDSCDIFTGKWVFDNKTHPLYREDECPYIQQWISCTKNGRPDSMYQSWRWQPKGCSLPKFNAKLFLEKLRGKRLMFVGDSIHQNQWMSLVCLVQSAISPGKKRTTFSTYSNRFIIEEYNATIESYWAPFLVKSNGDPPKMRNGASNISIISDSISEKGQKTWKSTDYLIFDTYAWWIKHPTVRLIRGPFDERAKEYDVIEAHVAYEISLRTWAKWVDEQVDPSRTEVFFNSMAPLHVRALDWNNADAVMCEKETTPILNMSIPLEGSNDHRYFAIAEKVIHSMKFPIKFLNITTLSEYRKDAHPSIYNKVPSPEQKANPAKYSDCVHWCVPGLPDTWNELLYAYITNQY
T4 sequence (A0A2K1ZDC4 entry or part of it): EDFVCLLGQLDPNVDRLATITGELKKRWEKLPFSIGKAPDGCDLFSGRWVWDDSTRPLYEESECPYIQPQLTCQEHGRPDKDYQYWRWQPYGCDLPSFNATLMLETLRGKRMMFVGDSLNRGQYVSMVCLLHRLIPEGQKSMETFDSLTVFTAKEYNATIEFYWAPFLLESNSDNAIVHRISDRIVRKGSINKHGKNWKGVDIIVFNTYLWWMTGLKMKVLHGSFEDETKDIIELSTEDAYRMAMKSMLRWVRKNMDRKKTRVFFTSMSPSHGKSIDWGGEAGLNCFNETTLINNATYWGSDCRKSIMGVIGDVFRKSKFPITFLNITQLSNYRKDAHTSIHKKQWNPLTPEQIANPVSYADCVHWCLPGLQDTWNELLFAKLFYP
T2 sequence (A0A2R4P4M4 entry or part of it): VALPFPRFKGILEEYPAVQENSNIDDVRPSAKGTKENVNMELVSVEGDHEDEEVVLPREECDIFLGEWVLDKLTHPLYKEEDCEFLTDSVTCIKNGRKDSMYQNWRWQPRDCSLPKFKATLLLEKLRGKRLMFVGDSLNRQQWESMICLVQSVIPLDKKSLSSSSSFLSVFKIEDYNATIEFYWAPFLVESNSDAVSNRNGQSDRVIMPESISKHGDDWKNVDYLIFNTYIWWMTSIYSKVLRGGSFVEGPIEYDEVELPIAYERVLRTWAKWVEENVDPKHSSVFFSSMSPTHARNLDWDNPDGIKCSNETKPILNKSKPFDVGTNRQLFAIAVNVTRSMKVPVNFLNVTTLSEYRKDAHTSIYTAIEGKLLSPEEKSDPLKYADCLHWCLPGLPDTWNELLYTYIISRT
T6 sequence (A0A2R4P4N0 entry or part of it): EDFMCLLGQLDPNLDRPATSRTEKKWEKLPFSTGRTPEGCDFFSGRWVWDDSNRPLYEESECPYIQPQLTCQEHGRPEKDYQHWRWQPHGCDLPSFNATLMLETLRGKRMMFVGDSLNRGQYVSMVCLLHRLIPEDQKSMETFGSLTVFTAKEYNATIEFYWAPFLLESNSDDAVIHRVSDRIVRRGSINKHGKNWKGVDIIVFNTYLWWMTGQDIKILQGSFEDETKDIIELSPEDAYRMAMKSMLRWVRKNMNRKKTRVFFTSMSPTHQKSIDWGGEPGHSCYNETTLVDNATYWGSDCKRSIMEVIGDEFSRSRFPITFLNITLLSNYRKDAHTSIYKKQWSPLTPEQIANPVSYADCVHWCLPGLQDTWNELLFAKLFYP
T5 sequence (A0A2R4P4N1 entry or part of it): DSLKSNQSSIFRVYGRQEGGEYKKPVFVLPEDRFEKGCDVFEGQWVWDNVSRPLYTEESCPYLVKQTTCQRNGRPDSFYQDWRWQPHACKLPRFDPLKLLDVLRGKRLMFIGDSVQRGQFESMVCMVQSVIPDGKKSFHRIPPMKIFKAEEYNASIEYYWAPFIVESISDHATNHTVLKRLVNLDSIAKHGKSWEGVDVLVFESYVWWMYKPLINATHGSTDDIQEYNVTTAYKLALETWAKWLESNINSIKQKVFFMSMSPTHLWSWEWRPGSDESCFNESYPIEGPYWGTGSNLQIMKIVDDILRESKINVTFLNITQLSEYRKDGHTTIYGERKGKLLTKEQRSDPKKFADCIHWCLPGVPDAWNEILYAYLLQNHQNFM

Take `OC1OC[C@@H](O[C@@H]2OC[C@@H](O[C@@H]3OC[C@@H](O[C@@H]4OC[C@@H](O[C@@H]5OC[C@@H](O[C@@H]6OC[C@@H](O)[C@H](O)[C@H]6O)[C@H](O)[C@H]5O)[C@H](O)[C@H]4O)[C@H](O)[C@H]3O)[C@H](O)[C@H]2O)[C@H](O)[C@H]1O` (stereo partly shown) [Xyl6, xylohexaose]: the “radiolabelled acetyl transfer, scintillation counting” value on PtrXOAT5, at PtrXOAT6, at PtrXOAT4, at PtrXOAT9, at PtrXOAT8 and on PtrXOAT10 was “PtrXOAT4 to PtrXOAT10 had a low level of activity” throughout. Also, the “radiolabelled acetyl transfer, scintillation counting” value on PtrXOAT7 is recorded as “PtrXOAT4 to PtrXOAT10 had a low level of activity”.
